ChEMBL document CHEMBL1157577

Target: T1, Progesterone receptor (Homo sapiens) (UniProt P06401)
T1 sequence (whole entry): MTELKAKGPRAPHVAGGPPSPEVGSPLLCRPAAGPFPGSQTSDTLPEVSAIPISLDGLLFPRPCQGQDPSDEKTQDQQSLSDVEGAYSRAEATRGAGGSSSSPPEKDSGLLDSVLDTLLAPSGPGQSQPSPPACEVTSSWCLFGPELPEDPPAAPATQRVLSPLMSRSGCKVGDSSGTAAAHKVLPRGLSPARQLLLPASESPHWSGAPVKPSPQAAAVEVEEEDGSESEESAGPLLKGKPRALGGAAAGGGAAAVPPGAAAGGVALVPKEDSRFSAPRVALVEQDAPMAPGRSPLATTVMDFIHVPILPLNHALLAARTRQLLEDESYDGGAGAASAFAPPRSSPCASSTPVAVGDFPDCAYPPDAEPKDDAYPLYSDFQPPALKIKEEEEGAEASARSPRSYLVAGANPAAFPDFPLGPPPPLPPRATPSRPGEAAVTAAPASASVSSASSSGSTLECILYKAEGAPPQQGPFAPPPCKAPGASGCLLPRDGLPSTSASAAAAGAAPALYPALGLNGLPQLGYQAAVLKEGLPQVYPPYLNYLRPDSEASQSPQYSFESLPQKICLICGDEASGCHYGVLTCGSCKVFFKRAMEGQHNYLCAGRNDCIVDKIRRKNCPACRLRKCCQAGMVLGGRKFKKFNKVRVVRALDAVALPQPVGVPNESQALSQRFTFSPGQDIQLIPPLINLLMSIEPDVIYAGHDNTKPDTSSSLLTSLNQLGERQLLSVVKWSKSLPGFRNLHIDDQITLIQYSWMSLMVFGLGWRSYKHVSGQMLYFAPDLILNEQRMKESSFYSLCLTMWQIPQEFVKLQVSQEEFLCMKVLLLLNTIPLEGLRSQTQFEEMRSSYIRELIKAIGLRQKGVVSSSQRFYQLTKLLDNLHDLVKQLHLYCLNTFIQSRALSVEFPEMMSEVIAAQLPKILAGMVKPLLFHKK
Assay: Antiprogestagenic activity at progesterone receptor in human T47D cells assessed as inhibition of progesterone-induced alkaline phosphatase activity relative to mifepristone
Format: cell-based
Set-up: scale not given: the % may be the effect or the level left

CC#C[C@]1(O)CC[C@H]2[C@@H]3CCC4=CC(=O)CCC4=C3[C@@H](c3ccc(N(C)CCC(=O)O)cc3)C[C@@]21C
Activity: 0.15%

CC#C[C@]1(O)CC[C@H]2[C@@H]3CCC4=CC(=O)CCC4=C3[C@@H](c3ccc(N(C)CCCCCC(=O)O)cc3)C[C@@]21C
Activity: 0.11%
